Tests used:
Type in all cases: functional
[1] = Growth inhibition of human OVCAR8 cells at 10 uM after 48 hrs by SRB assay relative to control; conditions: OVCAR-8, 48 h, read-out: GI
HT-29 = test: Growth inhibition of human HT-29 cells at 10 uM after 48 hrs by SRB assay relative to control; conditions: HT-29, 48 h, read-out: GI
SK-MEL-5 = test: Growth inhibition of human SK-MEL-5 cells at 10 uM after 48 hrs by SRB assay relative to control; conditions: SK-MEL-5, 48 h, read-out: GI
786-0 = test: Growth inhibition of human 786-0 cells at 10 uM after 48 hrs by SRB assay relative to control; conditions: 786-0, 48 h, read-out: GI
CCRF-CEM = test: Growth inhibition of human CCRF-CEM cells at 10 uM after 48 hrs by SRB assay relative to control; conditions: read-out: GI
[2] = Growth inhibition of human OVCAR3 cells at 10 uM after 48 hrs by SRB assay relative to control; conditions: OVCAR-3, 48 h, read-out: GI
NCI-H460 = test: Growth inhibition of human NCI-H460 cells at 10 uM after 48 hrs by SRB assay relative to control; conditions: NCI-H460, 48 h, read-out: GI
NCI-H226 = test: Growth inhibition of human NCI-H226 cells at 10 uM after 48 hrs by SRB assay relative to control; conditions: NCI-H226, 48 h, read-out: GI
[3] = Growth inhibition of human PC3 cells at 10 uM after 48 hrs by SRB assay relative to control; conditions: PC-3, 48 h, read-out: GI
NCI-H522 = test: Growth inhibition of human NCI-H522 cells at 10 uM after 48 hrs by SRB assay relative to control; conditions: NCI-H522, 48 h, read-out: GI
[4] = Growth inhibition of human HOP62 cells at 10 uM after 48 hrs by SRB assay relative to control; conditions: HOP-62, 48 h, read-out: GI
MDA-MB-435 = test: Growth inhibition of human MDA-MB-435 cells at 10 uM after 48 hrs by SRB assay relative to control; conditions: MDA-MB-435, 48 h, read-out: GI
[5] = Growth inhibition of human LOXIMVI cells at 10 uM after 48 hrs by SRB assay relative to control; conditions: LOX IMVI, read-out: GI
SR = test: Growth inhibition of human SR cells at 10 uM after 48 hrs by SRB assay relative to control; conditions: read-out: GI
MDA-MB-468 = test: Growth inhibition of human MDA-MB-468 cells at 10 uM after 48 hrs by SRB assay relative to control; conditions: MDA-MB-468, 48 h, read-out: GI
[6] = Growth inhibition of human UO31 cells at 10 uM after 48 hrs by SRB assay relative to control; conditions: UO-31, 48 h, read-out: GI
NCI-H322M = test: Growth inhibition of human NCI-H322M cells at 10 uM after 48 hrs by SRB assay relative to control; conditions: read-out: GI
SK-MEL-28 = test: Growth inhibition of human SK-MEL-28 cells at 10 uM after 48 hrs by SRB assay relative to control; conditions: SK-MEL-28, 48 h, read-out: GI
[7] = Growth inhibition of human SF539 cells at 10 uM after 48 hrs by SRB assay relative to control; conditions: SF-539, 48 h, read-out: GI
[8] = Growth inhibition of human SKOV3 cells at 10 uM after 48 hrs by SRB assay relative to control; conditions: SK-OV-3, 48 h, read-out: GI
EKVX = test: Growth inhibition of human EKVX cells at 10 uM after 48 hrs by SRB assay relative to control; conditions: read-out: GI

COc1ccc(C(=O)c2ccc3c(c2)Sc2cc(C(=O)c4ccc(OC)c(F)c4)ccc2N3C)cc1F
inhibition of growth at 10 µM [1]: 6% | inhibition of growth at 10 µM (HT-29): 5% | inhibition of growth at 10 µM (SK-MEL-5): 4% | inhibition of growth at 10 µM (786-0): 23% | inhibition of growth at 10 µM (CCRF-CEM): 0% | inhibition of growth at 10 µM [2]: 16% | inhibition of growth at 10 µM (NCI-H460): 0% | inhibition of growth at 10 µM (NCI-H226): 0% | inhibition of growth at 10 µM [3]: 3% | inhibition of growth at 10 µM (NCI-H522): 20% | inhibition of growth at 10 µM [4]: 6% | inhibition of growth at 10 µM (MDA-MB-435): 0% | inhibition of growth at 10 µM [5]: 0% | inhibition of growth at 10 µM (SR): 4% | inhibition of growth at 10 µM (MDA-MB-468): 13% | inhibition of growth at 10 µM [6]: 1% | inhibition of growth at 10 µM (NCI-H322M): 0% | inhibition of growth at 10 µM (SK-MEL-28): 0% | inhibition of growth at 10 µM [7]: 6%

O/N=C(/c1ccc2c(c1)Sc1ccccc1N2)c1c[nH]c2ccccc12
inhibition of growth at 10 µM [1]: 24% | inhibition of growth at 10 µM (HT-29): 84% | inhibition of growth at 10 µM (SK-MEL-5): 40% | inhibition of growth at 10 µM (786-0): 38% | inhibition of growth at 10 µM (CCRF-CEM): 76% | inhibition of growth at 10 µM [2]: 96% | inhibition of growth at 10 µM (NCI-H460): 82% | inhibition of growth at 10 µM (NCI-H226): 23% | inhibition of growth at 10 µM [3]: 72% | inhibition of growth at 10 µM (NCI-H522): 100% | inhibition of growth at 10 µM [4]: 42% | inhibition of growth at 10 µM (MDA-MB-435): 100% | inhibition of growth at 10 µM [5]: 44% | inhibition of growth at 10 µM (SR): 91% | inhibition of growth at 10 µM (MDA-MB-468): 63% | inhibition of growth at 10 µM [6]: 41% | inhibition of growth at 10 µM (NCI-H322M): 26% | inhibition of growth at 10 µM (SK-MEL-28): 31% | inhibition of growth at 10 µM [7]: 29%

COc1ccc(C(=O)c2ccc3c(c2)Sc2ccccc2N3C)cc1F
inhibition of growth at 10 µM [1]: 4% | inhibition of growth at 10 µM (HT-29): 30% | inhibition of growth at 10 µM (SK-MEL-5): 13% | inhibition of growth at 10 µM (786-0): 16% | inhibition of growth at 10 µM (CCRF-CEM): 12% | inhibition of growth at 10 µM [2]: 40% | inhibition of growth at 10 µM (NCI-H460): 13% | inhibition of growth at 10 µM (NCI-H226): 15% | inhibition of growth at 10 µM [3]: 21% | inhibition of growth at 10 µM (NCI-H522): 22% | inhibition of growth at 10 µM [4]: 17% | inhibition of growth at 10 µM (MDA-MB-435): 87% | inhibition of growth at 10 µM [5]: 21% | inhibition of growth at 10 µM (SR): 32% | inhibition of growth at 10 µM (MDA-MB-468): 55% | inhibition of growth at 10 µM [6]: 2% | inhibition of growth at 10 µM (NCI-H322M): 5% | inhibition of growth at 10 µM (SK-MEL-28): 13% | inhibition of growth at 10 µM [7]: 19%

O=C(c1ccc(F)cc1F)N1c2ccccc2Sc2ccccc21
inhibition of growth at 10 µM [1]: 35% | inhibition of growth at 10 µM (HT-29): 68% | inhibition of growth at 10 µM (SK-MEL-5): 68% | inhibition of growth at 10 µM (786-0): 26% | inhibition of growth at 10 µM (CCRF-CEM): 38% | inhibition of growth at 10 µM [2]: 43% | inhibition of growth at 10 µM (NCI-H460): 80% | inhibition of growth at 10 µM (NCI-H226): 30% | inhibition of growth at 10 µM [3]: 58% | inhibition of growth at 10 µM [8]: 22% | inhibition of growth at 10 µM (NCI-H522): 41% | inhibition of growth at 10 µM [4]: 33% | inhibition of growth at 10 µM (MDA-MB-435): 80% | inhibition of growth at 10 µM [5]: 74% | inhibition of growth at 10 µM (EKVX): 20% | inhibition of growth at 10 µM (SR): 72% | inhibition of growth at 10 µM (MDA-MB-468): 64% | inhibition of growth at 10 µM [6]: 31% | inhibition of growth at 10 µM (NCI-H322M): 8% | inhibition of growth at 10 µM (SK-MEL-28): 41% | inhibition of growth at 10 µM [7]: 49%

O=C(c1ccc(F)c(Cl)c1)N1c2ccccc2Sc2ccccc21
inhibition of growth at 10 µM [1]: 10% | inhibition of growth at 10 µM (HT-29): 64% | inhibition of growth at 10 µM (SK-MEL-5): 66% | inhibition of growth at 10 µM (786-0): 20% | inhibition of growth at 10 µM (CCRF-CEM): 42% | inhibition of growth at 10 µM [2]: 37% | inhibition of growth at 10 µM (NCI-H460): 1% | inhibition of growth at 10 µM (NCI-H226): 23% | inhibition of growth at 10 µM [3]: 60% | inhibition of growth at 10 µM [8]: 11% | inhibition of growth at 10 µM (NCI-H522): 57% | inhibition of growth at 10 µM [4]: 23% | inhibition of growth at 10 µM (MDA-MB-435): 92% | inhibition of growth at 10 µM [5]: 59% | inhibition of growth at 10 µM (EKVX): 26% | inhibition of growth at 10 µM (SR): 66% | inhibition of growth at 10 µM (MDA-MB-468): 37% | inhibition of growth at 10 µM [6]: 27% | inhibition of growth at 10 µM (NCI-H322M): 0% | inhibition of growth at 10 µM (SK-MEL-28): 38% | inhibition of growth at 10 µM [7]: 38%

O=C(c1ccc(Cl)cc1Cl)N1c2ccccc2Sc2ccccc21
inhibition of growth at 10 µM [1]: 49% | inhibition of growth at 10 µM (HT-29): 52% | inhibition of growth at 10 µM (SK-MEL-5): 65% | inhibition of growth at 10 µM (786-0): 33% | inhibition of growth at 10 µM (CCRF-CEM): 43% | inhibition of growth at 10 µM [2]: 41% | inhibition of growth at 10 µM (NCI-H460): 82% | inhibition of growth at 10 µM (NCI-H226): 32% | inhibition of growth at 10 µM [3]: 56% | inhibition of growth at 10 µM [8]: 31% | inhibition of growth at 10 µM (NCI-H522): 36% | inhibition of growth at 10 µM [4]: 35% | inhibition of growth at 10 µM (MDA-MB-435): 52% | inhibition of growth at 10 µM [5]: 76% | inhibition of growth at 10 µM (EKVX): 24% | inhibition of growth at 10 µM (SR): 68% | inhibition of growth at 10 µM (MDA-MB-468): 49% | inhibition of growth at 10 µM [6]: 35% | inhibition of growth at 10 µM (NCI-H322M): 15% | inhibition of growth at 10 µM (SK-MEL-28): 35% | inhibition of growth at 10 µM [7]: 58%

— ChEMBL document CHEMBL3792297, “Studies on phenothiazines: New microtubule-interacting compounds with phenothiazine A-ring as potent antineoplastic agents” (Bioorg Med Chem, 2016)
